What was measured:
human Gal-3 (hGal-3) = human Gal-3 (hGal-3) (Homo sapiens (Human), UniProt P17931); experiment: Competitive binding assay: binding of biotinylated hGal-3 to microplate-adsorbed asialofetuin (ASF); conditions: Activity on hGal-3; mean values of several measurements
Summary of the method: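 Spectrophotometric readout (streptavidin-peroxidase, ABTS) of biotinylated galectin retained on ASF-coated wells. Biotinylated hGal-1 or hGal-3, 300-1000 ng/mL, co-incubated with test compound 3 h at 4° C, then washed. Mean IC50 from repeat runs.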

human Gal-1 (hGal-1) = experiment: Competitive binding assay: binding of biotinylated hGal-1 to microplate-adsorbed asialofetuin (ASF); conditions: Activities on hGal-1; mean values of several measurements
Summary of the method: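 For hGal-1, a variant with all six cysteines replaced by serines is preferred. Either galectin, biotinylated at 300-1000 ng/mL, competes with compound for microplate-bound ASF over 3 h at 4° C; peroxidase/ABTS detection gives IC50, averaged.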

human Gal-1 (hGal-1), sequence (P09382 2-135 limits assumed): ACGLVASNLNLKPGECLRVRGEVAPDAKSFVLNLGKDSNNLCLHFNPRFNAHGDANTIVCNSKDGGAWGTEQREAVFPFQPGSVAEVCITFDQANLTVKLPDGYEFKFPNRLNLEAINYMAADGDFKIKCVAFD
human Gal-3 (hGal-3), sequence (P17931 whole entry): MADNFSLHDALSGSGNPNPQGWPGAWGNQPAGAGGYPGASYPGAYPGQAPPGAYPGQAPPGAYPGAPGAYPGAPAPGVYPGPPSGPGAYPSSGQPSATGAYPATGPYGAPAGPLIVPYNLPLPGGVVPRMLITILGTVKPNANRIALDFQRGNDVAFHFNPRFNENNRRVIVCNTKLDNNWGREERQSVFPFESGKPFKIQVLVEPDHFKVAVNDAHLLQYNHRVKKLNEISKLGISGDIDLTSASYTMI

| SMILES | IC50 (human Gal-3 (hGal-3)) | IC50 (human Gal-1 (hGal-1)) |
| --- | --- | --- |
| OC[C@H]1O[C@H](CC2=NOC(Cc3ccccc3)C2)[C@H](O)[C@@H](n2cc(-c3cc(F)c(F)c(F)c3)nn2)[C@H]1O (stereo partly shown) [Ex 1.36] | 2540 nM | 10.9 µM |
| Cc1ncsc1C1CC(C[C@H]2O[C@H](CO)[C@H](O)[C@H](n3cc(-c4cc(F)c(F)c(F)c4)nn3)[C@H]2O)=NO1 (stereo partly shown) [Ex 1.37] | 440 nM | 7.7 µM |
| OCCC1CC(C[C@H]2O[C@H](CO)[C@H](O)[C@H](n3cc(-c4cc(F)c(F)c(F)c4)nn3)[C@H]2O)=NO1 (stereo partly shown) [Ex 1.38] | 1420 nM | 15.9 µM |
| CC(C)(O)C1CC(C[C@H]2O[C@H](CO)[C@H](O)[C@H](n3cc(-c4cc(F)c(F)c(F)c4)nn3)[C@H]2O)=NO1 (stereo partly shown) [Ex 1.39] | 710 nM | 9.94 µM |
| CC(C)(C)OC(=O)N1CCC(c2cc(C[C@H]3O[C@H](CO)[C@H](O)[C@H](n4cc(-c5cc(F)c(F)c(F)c5)nn4)[C@H]3O)no2)CC1 [Ex 1.40] | 43 nM | 0.74 µM |
| CC(C)(C)OC(=O)N1CCC(C2CC(C[C@H]3O[C@H](CO)[C@H](O)[C@H](n4cc(-c5cc(F)c(F)c(F)c5)nn4)[C@H]3O)=NO2)CC1 (stereo partly shown) [Ex 1.41] | 450 nM | 6.29 µM |
| CC(C)(O)CC1CC(C[C@H]2O[C@H](CO)[C@H](O)[C@H](n3cc(-c4cc(F)c(F)c(F)c4)nn3)[C@H]2O)=NO1 (stereo partly shown) [Ex 1.42] | 1060 nM | 3.61 µM |
| OCc1cc(C[C@H]2O[C@H](CO)[C@H](O)[C@H](n3cc(-c4cc(F)c(F)c(F)c4)nn3)[C@H]2O)no1 [Ex 1.43] | 1900 nM | 15.8 µM |
| CC(=O)O[C@@H]1[C@@H](n2cc(-c3cc(F)c(F)c(F)c3)nn2)[C@@H](O)[C@@H](CO)O[C@@H]1CC1CC(C2CCN(C(=O)OC(C)(C)C)CC2)=NO1 (stereo partly shown) [Ex 1.44] | 65 nM | 1.71 µM |
| CC(C)(C)OC(=O)N1CCC(C2=NOC(C[C@H]3O[C@H](CO)[C@H](O)[C@H](n4cc(-c5cc(F)c(F)c(F)c5)nn4)[C@H]3O)C2)CC1 (stereo partly shown) [Ex 1.45] | 110 nM | 1.02 µM |
| CO[C@@H]1[C@@H](n2cc(-c3cc(F)c(F)c(F)c3)nn2)[C@@H](O)[C@@H](CO)O[C@@H]1CC1CC(C2CCN(C(=O)OC(C)(C)C)CC2)=NO1 (stereo partly shown) [Ex 1.46] | 290 nM | 1 µM |
| CO[C@@H]1[C@@H](n2cc(-c3cc(F)c(F)c(F)c3)nn2)[C@@H](O)[C@@H](CO)O[C@@H]1C[C@H]1CC(C2CCN(C(=O)OC(C)(C)C)CC2)=NO1 [Ex 1.47] | 660 nM | 6.54 µM |
| CO[C@@H]1[C@@H](n2cc(-c3cc(F)c(F)c(F)c3)nn2)[C@@H](O)[C@@H](CO)O[C@@H]1C[C@@H]1CC(C2CCN(C(=O)OC(C)(C)C)CC2)=NO1 [Ex 1.48] | 89 nM | 0.56 µM |
| CC(=O)O[C@@H]1[C@@H](n2cc(-c3cc(F)c(F)c(F)c3)nn2)[C@@H](O)[C@@H](CO)O[C@@H]1Cc1cc(C2CCN(C(=O)OC(C)(C)C)CC2)on1 [Ex 1.49] | 78 nM | 2.45 µM |
| CO[C@@H]1[C@@H](n2cc(-c3cc(F)c(F)c(F)c3)nn2)[C@@H](O)[C@@H](CO)O[C@@H]1Cc1cc(C2CCN(C(=O)OC(C)(C)C)CC2)on1 [Ex 1.50] | 63 nM | 0.57 µM |
| CC(C)(C)c1cc(C[C@H]2O[C@H](CO)[C@H](O)[C@H](n3cc(-c4cc(F)c(F)c(F)c4)nn3)[C@H]2O)no1 [Ex 1.51] | 150 nM | 2.5 µM |
| OC[C@H]1O[C@H](Cc2cc(C3CC3)on2)[C@H](O)[C@@H](n2cc(-c3cc(F)c(F)c(F)c3)nn2)[C@H]1O [Ex 1.52] | 500 nM | 7.98 µM |
| CC(C)(C)OC(=O)N1CC(c2cc(C[C@H]3O[C@H](CO)[C@H](O)[C@H](n4cc(-c5cc(F)c(F)c(F)c5)nn4)[C@H]3O)no2)C1 [Ex 1.53] | 350 nM | 2.87 µM |
| CC(C)(C)OC(=O)N1CCCC(c2cc(C[C@H]3O[C@H](CO)[C@H](O)[C@H](n4cc(-c5cc(F)c(F)c(F)c5)nn4)[C@H]3O)no2)C1 (stereo partly shown) [Ex 1.54] | 290 nM | 6.48 µM |
| CC(C)(C)OC(=O)N1CCC(c2cc(C[C@H]3O[C@H](CO)[C@H](O)[C@H](n4cc(-c5cc(F)c(F)c(F)c5)nn4)[C@H]3O)no2)C1 (stereo partly shown) [Ex 1.55] | 660 nM | 41.9 µM |
| OC[C@H]1O[C@H](Cc2cc(C3CCCCC3)on2)[C@H](O)[C@@H](n2cc(-c3cc(F)c(F)c(F)c3)nn2)[C@H]1O [Ex 1.56] | 340 nM | 15.2 µM |
| OC[C@H]1O[C@H](Cc2cc(C3CCCC3)on2)[C@H](O)[C@@H](n2cc(-c3cc(F)c(F)c(F)c3)nn2)[C@H]1O [Ex 1.57] | 400 nM | 12.5 µM |
| OC[C@H]1O[C@H](Cc2cc(C3(O)CCCC3)on2)[C@H](O)[C@@H](n2cc(-c3cc(F)c(F)c(F)c3)nn2)[C@H]1O [Ex 1.58] | 490 nM | 13.6 µM |
| OC[C@H]1O[C@H](Cc2cc(C3(O)COC3)on2)[C@H](O)[C@@H](n2cc(-c3cc(F)c(F)c(F)c3)nn2)[C@H]1O [Ex 1.59] | 400 nM | 6.31 µM |

| SMILES | IC50 (human Gal-3 (hGal-3)) | IC50 (human Gal-1 (hGal-1)) |
| --- | --- | --- |
| OC[C@H]1O[C@H](Cc2cc(C3CCOCC3)on2)[C@H](O)[C@@H](n2cc(-c3cc(F)c(F)c(F)c3)nn2)[C@H]1O [Ex 1.60] | 290 nM | 6.97 µM |
| CC(C)(C)OC(=O)N1CCC(O)(c2cc(C[C@H]3O[C@H](CO)[C@H](O)[C@H](n4cc(-c5cc(F)c(F)c(F)c5)nn4)[C@H]3O)no2)CC1 [Ex 1.61] | 36 nM | 0.62 µM |
| CO[C@@H]1[C@@H](n2cc(-c3cc(F)c(F)c(F)c3)nn2)[C@@H](O)[C@@H](CO)O[C@@H]1Cc1cc(C2CCN(C(=O)OC(C)(C)C)CC2)no1 [Ex 1.62] | 76 nM | 0.45 µM |
| CO[C@@H]1[C@@H](n2cc(-c3cc(F)c(F)c(F)c3)nn2)[C@@H](O)[C@@H](CO)O[C@@H]1Cc1cc(C(C)(C)C)on1 [Ex 1.63] | 340 nM | 2.54 µM |
| CO[C@@H]1[C@@H](n2cc(-c3cc(F)c(F)c(F)c3)nn2)[C@@H](O)[C@@H](CO)O[C@@H]1Cc1cc(C2CCOCC2)on1 [Ex 1.64] | 270 nM | 8.51 µM |
| CO[C@@H]1[C@@H](n2cc(-c3cc(F)c(F)c(F)c3)nn2)[C@@H](O)[C@@H](CO)O[C@@H]1Cc1cc(C2CCCCC2)on1 [Ex 1.65] | 560 nM | 14.1 µM |
| CO[C@@H]1[C@@H](n2cc(-c3cc(F)c(F)c(F)c3)nn2)[C@@H](O)[C@@H](CO)O[C@@H]1CC1=NOC(C(C)(C)C)C1 (stereo partly shown) [Ex 1.66] | 1080 nM | 3.76 µM |
| CO[C@@H]1[C@@H](n2cc(-c3cc(F)c(F)c(F)c3)nn2)[C@@H](O)[C@@H](CO)O[C@@H]1CC1=NOC(C2CCN(C(=O)OC(C)(C)C)CC2)C1 (stereo partly shown) [Ex 1.67] | 430 nM | 3.08 µM |
| CO[C@@H]1[C@@H](n2cc(-c3cc(F)c(F)c(F)c3)nn2)[C@@H](O)[C@@H](CO)O[C@@H]1Cc1cc(C2(O)COC2)on1 [Ex 1.69] | 450 nM | 6.73 µM |
| CO[C@@H]1[C@@H](n2cc(-c3cc(F)c(F)c(F)c3)nn2)[C@@H](O)[C@@H](CO)O[C@@H]1Cc1cc(C2CCN(C(=O)OC(C)(C)C)C2)on1 (stereo partly shown) [Ex 1.70] | 1980 nM | 12.6 µM |
| CO[C@@H]1[C@@H](n2cc(-c3cc(F)c(F)c(F)c3)nn2)[C@@H](O)[C@@H](CO)O[C@@H]1Cc1cc(C2CCCC2)on1 [Ex 1.71] | 230 nM | 5.26 µM |
| CO[C@@H]1[C@@H](n2cc(-c3cc(F)c(F)c(F)c3)nn2)[C@@H](O)[C@@H](CO)O[C@@H]1Cc1cc(C2(O)CCCC2)on1 [Ex 1.72] | 360 nM | 5.11 µM |
| CO[C@@H]1[C@@H](n2cc(-c3cc(F)c(F)c(F)c3)nn2)[C@@H](O)[C@@H](CO)O[C@@H]1Cc1cc(C2(O)CCCCC2)on1 [Ex 1.73] | 190 nM | 3.12 µM |
| CO[C@@H]1[C@@H](n2cc(-c3cc(F)c(F)c(F)c3)nn2)[C@@H](O)[C@@H](CO)O[C@@H]1Cc1cc(C2CCC2)on1 [Ex 1.74] | 180 nM | 3.16 µM |
| CO[C@@H]1[C@@H](n2cc(-c3cc(F)c(F)c(F)c3)nn2)[C@@H](O)[C@@H](CO)O[C@@H]1Cc1cc(C2(O)CCOCC2)on1 [Ex 1.75] | 400 nM | 3.55 µM |
| CO[C@@H]1[C@@H](n2cc(-c3cc(F)c(F)c(F)c3)nn2)[C@@H](O)[C@@H](CO)O[C@@H]1Cc1cc(C2(O)CCCN(C(=O)OC(C)(C)C)CC2)on1 (stereo partly shown) [Ex 1.76] | 4620 nM | 13.3 µM |
| OC[C@H]1O[C@H](Cc2cc(C3CCC4(CC3)OCCO4)on2)[C@H](O)[C@@H](n2cc(-c3cc(F)c(F)c(F)c3)nn2)[C@H]1O [Ex 1.77] | 710 nM | 6.82 µM |
| CCOC(=O)C1CCC(O)(c2cc(C[C@H]3O[C@H](CO)[C@H](O)[C@H](n4cc(-c5cc(F)c(F)c(F)c5)nn4)[C@H]3O)no2)CC1 (stereo partly shown) [Ex 1.78] | 1000 nM | 9.64 µM |
| CO[C@@H]1[C@@H](n2cc(-c3cc(F)c(F)c(F)c3)nn2)[C@@H](O)[C@@H](CO)O[C@@H]1Cc1cc(C2CCC(F)(F)CC2)on1 [Ex 1.79] | 270 nM | 4.24 µM |
| CC(C)(C)OC(=O)NC1CCC(c2cc(C[C@H]3O[C@H](CO)[C@H](O)[C@H](n4cc(-c5cc(F)c(F)c(F)c5)nn4)[C@H]3O)no2)CC1 (stereo partly shown) [Ex 1.80] | 110 nM | 43.8 µM |
| CC(C)(C)OC(=O)NC1CCC(c2cc(C[C@H]3O[C@H](CO)[C@H](O)[C@H](n4cc(-c5cc(F)c(F)c(F)c5)nn4)[C@H]3O)no2)CC1 (stereo partly shown) [Ex 1.81] | 200 nM | 14.5 µM |
| CO[C@@H]1[C@@H](n2cc(-c3cc(F)c(F)c(F)c3)nn2)[C@@H](O)[C@@H](CO)O[C@@H]1Cc1cc(C2(O)CCC(C)(C)CC2)on1 [Ex 1.82] | 1350 nM | 28.4 µM |
| CO[C@@H]1[C@@H](n2cc(-c3cc(F)c(F)c(F)c3)nn2)[C@@H](O)[C@@H](CO)O[C@@H]1Cc1cc(C2(O)CCC(F)(F)CC2)on1 [Ex 1.83] | 400 nM | 8.21 µM |
